Experimental data published in publication PMC3884847 (Journal of Medicinal Chemistry, 2013).
pIC50: −log10 of the molar value. Values after ≈ are worked out from the molar mass of the structure shown. Values joined by “and” are separate entries in the source; they are usually repeats but may differ in a detail not shown here. Equal values may be shown once. Read-outs that look alike come from different tables or passages of the source. One block for each compound: values may come before it.

Assays:
T. cruzi (Tulahuen TcVI) [1] = system: T. cruzi (Tulahuen TcVI)
T. cruzi (Tulahuen TcVI) [2] = assay: Initial PK/PD efficacy: 10-day once daily oral dosing of T. cruzi infected mice; format: in vivo, Swiss mice; conditions: 20 mg/kg oral once daily for up to 10 days
[3] = human liver microsomes
T. cruzi [4] = conditions: twice daily treatment for 30 days, acute and chronic models; cited from earlier work
[5] = system: T. cruzi (Tulahuen strain (Tc VI) transfected with β-galactosidase), amastigote form; assay: microbe, parasite or virus in culture; conditions: Trypanosoma cruzi
T. cruzi [6] = conditions: cited from earlier work
in vitro = conditions: rat, L6 IC50 (cytotoxicity), L6 cells
T. cruzi (Tulahuen TcVI) [7] = conditions: once daily oral 20 mg/kg for 20 days, cited from earlier work
physchem = conditions: pH 2
[8] = 20 mg/kg oral once daily 20 days, day 8 = first compound dose
[9] = 20 mg/kg oral once daily 20 days, end after three cycles of immunosuppression
[10] = 20 mg/kg oral once daily 20 days, first day of nontreatment period
[11] = 20 mg/kg oral once daily 20 days, last day of nontreatment period
[12] = 20 mg/kg, PCR of blood, spleen, heart, skeletal muscle, colon
[13] = 5 mg/kg oral once daily 20 days
[14] = 10 mg/kg oral once daily 20 days
[15] = 100 mg/kg oral once daily 20 days
[16] = 20 mg/kg oral once daily 20 days

Compound: O=C(C(c1ccc(Cl)cc1)c1cccnc1)N1CCN(c2ccc(C(F)(F)F)cc2)CC1 (racemic) [(rac)-7, 2-(4-Chlorophenyl)-1-{4-[4-(trifluoromethyl)phenyl]piperazin-1-yl}-2-(pyridin-3-yl)ethanone]
cure by PCR analyses of organs and blood (T. cruzi (Tulahuen TcVI) [1]; 20 mg/kg daily oral): no cures were obtained | mouse survival after infection, day 8 (T. cruzi (Tulahuen TcVI) [1]; [8]): 5 of 5 | mouse survival after infection, day 58 (T. cruzi (Tulahuen TcVI) [1]; [9]): 3 of 5 | mouse survival after infection, day 28 (T. cruzi (Tulahuen TcVI) [1]; [10]): 5 of 5 | mouse survival after infection, day 37 (T. cruzi (Tulahuen TcVI) [1]; [11]): 5 out of 5 and 5 of 5 | –ve PCR (T. cruzi (Tulahuen TcVI) [1]; [12]): 0 of 3 | parasites cleared from blood during 10-day dosing? (T. cruzi (Tulahuen TcVI) [2]): yes | predicted human EH ([3]; Table 2): 0.50

predicted human EH ([3]; Table 2): 0.61
Compound: O=C([C@H](c1ccc(Cl)cc1)c1cccnc1)N1CCN(c2ccc(C(F)(F)F)cc2)CC1 [(R)-7, 2-(4-Chlorophenyl)-1-{4-[4-(trifluoromethyl)phenyl]piperazin-1-yl}-2-(pyridin-3-yl)ethanone]

Compound: O=C([C@@H](c1ccc(Cl)cc1)c1cccnc1)N1CCN(c2ccc(C(F)(F)F)cc2)CC1 [(S)-7, 2-(4-Chlorophenyl)-1-{4-[4-(trifluoromethyl)phenyl]piperazin-1-yl}-2-(pyridin-3-yl)ethanone]
cure by PCR analyses of organs and blood (T. cruzi (Tulahuen TcVI) [1]; 5 mg/kg daily oral): cure had not been achieved | mouse survival after infection, day 8 (T. cruzi (Tulahuen TcVI) [1]; [13]): 4 of 4 | mouse survival after infection, day 28 (T. cruzi (Tulahuen TcVI) [1]; [13]): 4 of 4 | mouse survival after infection, day 37 (T. cruzi (Tulahuen TcVI) [1]; [13]): 4 of 4 | mouse survival after infection, day 58 (T. cruzi (Tulahuen TcVI) [1]; [13]): 3 out of 4 and 3 of 4 | –ve PCR (T. cruzi (Tulahuen TcVI) [1]; 5 mg/kg, PCR of blood and tissues): 0 of 3 | mouse survival after infection, day 8 (T. cruzi (Tulahuen TcVI) [1]; [14]): 4 of 4 | mouse survival after infection, day 28 (T. cruzi (Tulahuen TcVI) [1]; [14]): 4 of 4 | mouse survival after infection, day 37 (T. cruzi (Tulahuen TcVI) [1]; [14]): 4 of 4 | mouse survival after infection, day 58 (T. cruzi (Tulahuen TcVI) [1]; [14]): 3 of 4 | –ve PCR (T. cruzi (Tulahuen TcVI) [1]; 10 mg/kg, PCR of blood and tissues): 2 out of the 3 and 2 of 3 | predicted human EH ([3]; Table 2): 0.53

Compound: O=C(N[C@@H](Cn1ccnc1)c1ccc(Cl)cc1Cl)c1ccc(-c2nnc(-c3ccccc3)o2)cc1 [VNI]
parasitological cure (T. cruzi [4]): parasitological cure

Compound: O=C(Cn1ccnc1[N+](=O)[O-])NCc1ccccc1 [benznidazole, reference compound]
parasites in blood during the immunosuppression phase (T. cruzi (Tulahuen TcVI) [1]; 100 mg/kg oral): re-emergence of parasites in blood | mouse survival after infection, day 8 (T. cruzi (Tulahuen TcVI) [1]; [15]): 5 of 5 | mouse survival after infection, day 28 (T. cruzi (Tulahuen TcVI) [1]; [15]): 4 of 5 | mouse survival after infection, day 37 (T. cruzi (Tulahuen TcVI) [1]; [15]): 4 of 5 | mouse survival after infection, day 58 (T. cruzi (Tulahuen TcVI) [1]; [15]): 0 of 5 | pIC50 ([5]; read-out: Tc IC50): 5.82 | adult patients experiencing serious adverse reactions (T. cruzi [6]): up to 30% | cure rates, acute stage of the infection (T. cruzi [6]; patients): up to 60% | pIC50 (in vitro): < 4.00

Compound: N#Cc1ccc(C(O)(c2ccc(C(F)(F)F)cc2)c2cccnc2)cc1 (centres unmarked) [compound 2, 4-(hydroxy(pyridin-3-yl)[4-(trifluoromethyl)phenyl]methyl)benzonitrile]
parasitological cure (T. cruzi (Tulahuen TcVI) [7]; three cycles of immunosuppression): had not achieved a parasitological cure | parasites cleared from blood during 10-day dosing? (T. cruzi (Tulahuen TcVI) [2]): yes | pIC50 [5]: 7.92

Compound: N#Cc1ccc(C(c2cccnc2)N2CCC(NC(=O)c3c(F)cccc3F)CC2)cc1 (centres unmarked) [compound 4]
parasites cleared from blood during 10-day dosing? (T. cruzi (Tulahuen TcVI) [2]): no

Compound: Fc1cc(Cl)ccc1C(NC1CCN(c2ccc(C(F)(F)F)cc2)CC1)c1cccnc1 (centres unmarked) [compound 5]
parasites cleared from blood during 10-day dosing? (T. cruzi (Tulahuen TcVI) [2]): yes

Compound: FC(F)(F)c1ccc(N(c2cccnc2)C2CCN(c3ccc(C(F)(F)F)cn3)CC2)cc1 [compound 6, N-[4-(Trifluoromethyl)phenyl]-N-(1-[5-(trifluoromethyl)pyridin-2-yl]piperidin-4-yl)pyridin-3-amine]
mice microscopically parasite free following three cycles of immunosuppression (T. cruzi (Tulahuen TcVI) [1]; [16]): 3 out of 4 | mice parasite free at the end of dosing (T. cruzi (Tulahuen TcVI) [1]; [16]): 4 out of 5 | mouse survival after infection, day 8 (T. cruzi (Tulahuen TcVI) [1]; [8]): 5 of 5 | mouse survival after infection, day 58 (T. cruzi (Tulahuen TcVI) [1]; [9]): 3 of 5 | mouse survival after infection, day 28 (T. cruzi (Tulahuen TcVI) [1]; [10]): 4 of 5 | mouse survival after infection, day 37 (T. cruzi (Tulahuen TcVI) [1]; [11]): 4 of 5 | –ve PCR (T. cruzi (Tulahuen TcVI) [1]; [12]): 3 of 3 | parasitological cure (T. cruzi (Tulahuen TcVI) [1]; lower doses, 5 and 10 mg/kg, data not shown): parasitological cure was not observed | parasites cleared from blood during 10-day dosing? (T. cruzi (Tulahuen TcVI) [2]): yes | predicted human EH ([3]; Table 1): 0.68

predicted human EH ([3]; Table 1): 0.91
Compound: CC(C)(C)CC(=O)N1CCC(N(c2ccc(Cl)cc2)c2cccnc2)CC1 [compound 16]

Compound: Cc1ccccc1CN1CCC(N(c2ccc(C(F)(F)F)cc2)c2cccnc2)CC1 [compound 22]
predicted human EH ([3]; Table 1): 0.87

predicted human EH ([3]; Table 1): 0.88
Compound: N#Cc1ccccc1N1CCC(N(c2ccc(C(F)(F)F)cc2)c2cccnc2)CC1 [compound 25]

predicted human EH ([3]; Table 1): 0.65
Compound: FC(F)(F)c1ccc(N(c2cccnc2)C2CCN(c3ccc(Cl)cc3)CC2)cc1 [compound 27]

predicted human EH ([3]; Table 1): 0.69
Compound: N#Cc1ccc(N(c2cccnc2)C2CCN(c3ccc(C(F)(F)F)cc3)CC2)cc1 [compound 31]

predicted human EH ([3]; Table 1): 0.47
Compound: CS(=O)(=O)c1ccc(N2CCC(N(c3ccc(C#N)cc3)c3cccnc3)CC2)cc1 [compound 33]

predicted human EH ([3]; Table 1): 0.63
Compound: FC(F)(F)c1ccc(N(c2cncnc2)C2CCN(c3ccc(C(F)(F)F)cn3)CC2)cc1 [compound 34]

predicted human EH ([3]; Table 2): 0.70
Compound: N#Cc1ccc(C(C(=O)N2CCN(c3ccc(C(F)(F)F)cc3)CC2)c2cccnc2)cc1 (centres unmarked) [compound 40]

predicted human EH ([3]; Table 2): 0.77
Compound: O=C(C(c1ccc(Cl)cc1)c1cccnc1)N1CCN(c2ccc(C(F)(F)F)nc2)CC1 (centres unmarked) [compound 41]

predicted human EH ([3]; Table 2): 0.56
Compound: N#Cc1ccc(C(C(=O)N2CCN(c3ccc(C(F)(F)F)nc3)CC2)c2cccnc2)cc1 (centres unmarked) [compound 42]

predicted human EH ([3]; Table 2): 0.70 | solubility (physchem): 25 µg/mL (≈ 54.2 µM)
Compound: O=C(C(c1ccc(Cl)cc1)c1cccnc1)N1CCN(c2ccc(C(F)(F)F)cn2)CC1 (centres unmarked) [compound 43]

predicted human EH ([3]; Table 2): 0.56
Compound: N#Cc1ccc(C(C(=O)N2CCN(c3ccc(C(F)(F)F)cn3)CC2)c2cccnc2)cc1 (centres unmarked) [compound 44]

predicted human EH ([3]; Table 2): 0.82
Compound: CS(=O)(=O)c1ccc(N2CCN(C(=O)C(c3ccc(Cl)cc3)c3cccnc3)CC2)cc1 (centres unmarked) [compound 45]

predicted human EH ([3]; Table 2): 0.46
Compound: CS(=O)(=O)c1ccc(N2CCN(C(=O)C(c3ccc(C#N)cc3)c3cccnc3)CC2)cc1 (centres unmarked) [compound 46]

Compound: N#Cc1ccc(C(c2cccnc2)N2CCC(NC(=O)c3ccccc3)CC2)cc1 (centres unmarked) [compound 47]
parasites cleared from blood during 10-day dosing? (T. cruzi (Tulahuen TcVI) [2]): no

Compound: N#Cc1cccc(N2CCC(NC(c3cccnc3)c3ccc(Cl)cc3F)CC2)c1 (centres unmarked) [compound 48]
parasites cleared from blood during 10-day dosing? (T. cruzi (Tulahuen TcVI) [2]): no

Compound: Cc1cc(C(=O)NC2CCN(C(c3ccc(C#N)cc3)c3cccnc3)CC2)n(C)n1 (centres unmarked) [compound 50]
parasites cleared from blood during 10-day dosing? (T. cruzi (Tulahuen TcVI) [2]): no

Compound: Cc1ncsc1C(=O)N1CCC(NC(c2ccc(C(F)(F)F)cc2)c2cccnc2)CC1 (centres unmarked) [compound 51]
parasites cleared from blood during 10-day dosing? (T. cruzi (Tulahuen TcVI) [2]): no

Compound: N#Cc1ccc(C(O)(c2ccc(C(F)(F)F)cc2)c2cccnc2)c(F)c1 (centres unmarked) [compound 52]
parasites cleared from blood during 10-day dosing? (T. cruzi (Tulahuen TcVI) [2]): yes | pIC50 [5]: 8.70

Compound: CC[C@@H]([C@H](C)O)n1ncn(-c2ccc(N3CCN(c4ccc(OC[C@@H]5CO[C@@](Cn6cncn6)(c6ccc(F)cc6F)C5)cc4)CC3)cc2)c1=O [posaconazole, reference compound]
mice cured (T. cruzi (Tulahuen TcVI) [7]; subchronic mouse model): ~60% | parasites cleared from blood during 10-day dosing? (T. cruzi (Tulahuen TcVI) [2]): yes | pIC50 ([5]; read-out: Tc IC50): 9.15 | pIC50 (in vitro): < 4.00
